# Measured values as given in patent US4060652A (priority 1976, dated 1977).
# Like-named read-outs stand apart in the source and are kept apart here.
# Tests used:
# [1] = system: nervomuscular conduction, anterior tibial muscle; test: Nervomuscular block in cats, indirect stimulation of anterior tibial muscle; type: in vivo
# Experimental: The preparation was studied in acute experiments on cats, rabbits, mice and pigeons, in experiments on phrenico-diaphragm preparations of rats, and also on the straight muscle of a frog abdomen. The properties of Tercuronium were compared with those of α-tubocurarin and pancuronium.
# (§1) Cats were narcotized (with chloralose, 50 mg per kg body weight, and urethane, 500 mg/kg, intraperitoneally) or decerebrated at the quadrigeminal bodies level. The lungs were ventilated artificially whenever necessary. Contractions of the anterior tibial muscle were recorded in isotonic concitions in response to electric stimulation of the peripheral part of n. peroneus with supramaximum pulses of 0.1 msec at a frequency of 0.1-100 Hz.
# [2] = system: nervomuscular conduction, anterior tibial muscle; test: Neostigmin antagonism of nervomuscular block in cats; type: in vivo
# Experimental: as §1
# For example, even with a 5-fold dose of tercuronium, muscle contractility was restored already in 2 to 5 minutes following a single injection of neostigmin in a dose of 0.1 mg/kg, and in 15-20 minutes the recovery of the contactile function was complete.
# In the case of pancuronium and α-tubocurarin, the restoration within these short periods of time could only be attained with 2-3 fold doses of these muscle relaxants. If the dose of pancuronium was increased 4 to 5 times, weak contractions of the muscle were observed not sooner than in 9 to 10 minutes and the contraction was, restored completely only 30 minutes after the injection of neostigmin (six experiments). The restoration of muscle contractility is delayed even longer in the case of α-tubocurarin.
# [3] = system: rabbits; test: Head-drop test in non-narcotized rabbits; type: in vivo
# Experimental: In experiments (a total of twenty) on non-narcotized rabbits, the head-drop dose (HDD) was 0.022 ± 0.009 micromole/kg A complete blocking effect developed 1.5 to 2 minutes after administration of Tercuronium and persisted for 3 to 5 minutes. A few minutes later, the animal behaviour normalized. The same effect was attained with 0.18 ± 0.02 micromole/kg of α-tubocurarin (6 experiments) and 0.018 ± 0.001 mcM/kg of pancuronium (6 experiments). The time of onset and the duration of the blocking effect with all the three preparations were the same.
# [4] = Lethality by paralysis of respiratory muscles in rabbits; conditions: rabbit, in vivo
# Excerpt: In another series of experiments, we determined the intravenous dose of the muscle relaxants that caused death of 50% of the animals due to paralysis of the respiratory muscles -- lethal dose 50% (LD50).
# [5] = system: albino mice; test: Inhibition of turning from the lateral position in mice; type: in vivo; conditions: Mus musculus, iv; mice, turning from the lateral position; read-out: ED50
# Excerpt: (§2) In experiments on albino mice, the dose of Tercuronium injected into the tail vein, that inhibited the symptom of turning from the lateral position in 50 percent of mice (ED50) was 0.06 mcM/kg (18 experiments); and 50 percent of mice perished from paralysis of the respiratory muscles (LD50) following an injection of 0.09 mcM/kg of Tercuronium.
# [6] = Lethality by paralysis of respiratory muscles in mice; conditions: mouse, in vivo, iv
# Excerpt: as §2
# [7] = system: respiration; test: Inhibition of respiration in narcotized and decerebrated cats (and rabbits); type: in vivo
# Excerpt: This developed simultaneously with the block of the nervomuscular conduction in the anterior tibial muscle. […] The same result was obtained in experiments on rabbits. The ratio of LD50 in experiments on rabbits and mice, as specified above, also provides data on the that Tercuronium produces on respiration.
# [8] = system: arterial pressure; test: Effect on arterial pressure in cats and rabbits; type: in vivo
# Experimental: Experiments were carried out on narcotized cats and rabbits (50 mg/kg of chloralose and 500 mg/kg urethane, intraperitoneally) and also on cats decerebrated at the quadrigeminal level. The blood pressure in the carotid artery was recorded with a mercury pressure gauge. The preparations were injected intravenously.
# When Tercuronium was given in a quantity ten times exceeding the myoparalytic dose (0.8 mcM/kg) an insignificant and transient reduction (10 to 20 mm Hg) of the blood pressure was observed. The animals (7 cats and 5 rabbits) tolerated injections of very large doses of Tercuronium, viz., 10-20 mcM/kg, which is 200 times higher than the myoparalytic dose. […] In all experiments, in 1 to 2 hours, the arterial pressure restored completely or was close to the initial level.
# [9] = Effect on sympathetic ganglia, third eyelid contraction in cats; type: in vivo; conditions: cat, in vivo, iv, read-out: ganglioblocking dose as multiple of myoparalytic dose
# Experimental: Experiments were carried out on narcotized cats. A peripheral part of the sympathetic column on the neck was stimulated with electric pulses at 5 Hz. The duration of the stimulus was 1 msec, the amplitude 5 V. The contractions of the third eyelid (nictiating membrane) and the arterial (carotid) pressure were recorded with a mercury pressure gauge. We determined the intravenous dose of Tercuronium, α-tubocurarin and pancuronium that decreased the height of contraction of the third eyelid by 50 to 60 percent in conditions of prolonged stimulation of the sympathetic column.
# [10] = system: nervomuscular conduction, vegetative ganglia, circulation; test: Overall conclusions from animal experiments; type: in vivo, animals
# Excerpt: The results of the pharmacological studies of the proposed muscle relaxant Tercuronium, as compared with the known muscle relaxants, enable us to make the following conclusions.
# [11] = system: nervomuscular conduction, ganglia, circulation; conditions: cited from earlier work
smiles,measurement,setting,value
"CC(=O)O[C@H]1C[C@@H]2CC[C@@H]3[C@H](CC[C@@]4(C)[C@H]3C[C@H]([N+]3(C)CCCCC3)[C@@H]4OC(C)=O)[C@@]2(C)C[C@@H]1[N+]1(C)CCCCC1 [pancuronium, reference compound]",mean duration of effect,[1],nine
same,ED (95-100),"[1]; Felis catus, intravenous, 0.1 Hz, read-out: dose blocking nervomuscular conduction (95-100 percent)",0.04 ± 0.001 µmol/kg
same,multiple of dose at which restoration within the short periods could be attained,"[2]; cats, neostigmin",2-3 fold
same,time to complete restoration of contraction after neostigmin,"[2]; dose increased 4 to 5 times, six experiments",30 min
same,number of myoparalytic doses whose blocking effect is completely removed by neostigmin,"[2]; neostigmin 0.1 mg/kg intravenous, within five minutes",three
same,ED (head drop),"[3]; Oryctolagus cuniculus, non-narcotized rabbits, read-out: head-drop dose (HDD)",0.018 ± 0.001 µmol/kg
same,"time of onset and duration of blocking effect, comparison",[3]; all three preparations,the same
same,LD50,[4]; intravenous,0.026 µmol/kg
same,selectivity ratio,[4]; read-out: LD50 to HDD ratio,1.4
same,ED50,[5],0.042 µmol/kg
same,LD50,[6],0.062 µmol/kg
same,selectivity ratio,[6]; read-out: width of the muscle relaxing action (LD50/ED50),1.5
same,"inhibition of respiration by blocking doses, comparison",[7]; from LD50 to ED50 ratio,equally inhibit respiration
same,effect on respiration,[7]; narcotized and decerebrated cats,The same effect was observed
same,effect on arterial pressure of 20-fold dose,[8]; 20-fold dose,moderately depressive
same,arterial pressure on doses that inhibit respiration,[8]; active ventilation of the lungs,asphyxial rise in the arterial pressure
same,effect on arterial pressure of myoparalytic (complete block) dose,[8]; artificial ventilation,the arterial pressure did not drop either
same,selectivity ratio,[9],30
same,arterial pressure and pulse rate,[10]; in vivo,"stable rise in the arterial pressure, which results in increased hemorrhage in surgical operations and in accelerated pulse rate"
same,"histamine, vegetative ganglia, blood pressure and heart frequency",[10]; myoparalytic dose,do not produce histamine or block vegetative ganglia
same,conditions for tracheal intubation,[11]; 0.15 mg/kg,favourable conditions for tracheal intubation are provided
same,duration of myoparalytic action,[11]; background,lasts for the same period of time as that of α-tubocurarin
same,fold less active than α-tubocurarin in blocking conduction in sympathetic ganglia,[11]; background,2.5 times
same,"histamine release, ganglia and circulatory effects",[11]; background,often accelerates the pulse rate and increases arterial pressure
same,removal of myoparalytic action by proserpin,[11]; background,"can be removed with proserpin, and cases with difficult decurarization occur less frequently than with α-tubocurarin"
same,"histamine release, ganglia and circulatory effects","[11]; background, listed as Pancuronium","does not induce production of histamine from tissues, nor does it lower arterial pressure"
"C[N+](C)(C)CCOC(=O)CCC(=O)OCC[N+](C)(C)C [succinylcholine, dicholine ester of succinic acid]",duration of action in patients with hepatic dysfunction and low cholinesterase,[11]; common dose,can last for a period of a few hours
CC[N+](CC)(CC)CCOc1cccc(OCC[N+](CC)(CC)CC)c1OCC[N+](CC)(CC)CC [pyrolaxon],"histamine release, ganglia and circulatory effects",[11]; background,blocks parasympathetic ganglia and produces tachycardia
